US8637528B2, “Use of PDE7 inhibitors for the treatment of movement disorders” (Omeros Corporation, priority 2007, dated 2014)
Entries after “also recorded” stand apart in the source; their conditions may differ.

Key:
[1] = system: MPTP-treated mice; experiment: inked paw stride length in the MPTP mouse model of Parkinson's disease, panel of PDE7 inhibitors (Example 7); format: in vivo
Method: Adult male C57BL/6J; retired breeders, aged between 7-9 months Charles River Laboratories, Wilmington, Mass.), singly housed. Three groups of 35 mice were tested in series one week apart.
(§1) Mice received 2 subcutaneous injections of methylphenyltetrahydropyridine (“MPTP”) at a dose of 15 mg/kg (free base) with a 10-12 hour interval between injections. Control mice (sham lesion groups) were administered saline instead of MPTP.
(§2) Prior to injection with MPTP or saline, animals were pre-trained to walk across a clean sheet of paper into their home cage without stopping. For assessment of stride length, animals had their forepaws placed in black ink and the length of forepaw steps during normal walking (in a straight line only) was measured. The animals were immediately put back into their home cage upon completion of the task. Stride length was determined by measuring the distance between each step on the same side of the body, measuring from the middle toe of the first step to the heel of the second step. An average of at least four clear steps was calculated. The schedule for this experiment was as follows:
Because of the wide variation in aqueous solubility among these compounds, a number of different formulations were required. L-dopa was administered in 100 μl of phosphate buffered saline. For animals treated with L-dopa, the dopa decarboxylase inhibitor benserazide (100 μL of a 12.5 mg/kg solution) was administered 15 minutes prior to treatment with L-dopa in order to minimize the destruction of L-dopa in the peripheral blood. […] Therefore, the treatment effects observed are due solely to the PDE7 inhibitory compounds themselves. […] This phenomenon of “overshoot” has also been observed with L-dopa in MPTP-treated mice in which lower doses ameliorate hypoactivity while higher doses induce dyskinesias or uncontrolled movements (Lundblad M. et al., Exp Neurol.194(1):66-75 (2005); Pearce R. K. et al., Mov Disord. 10(6):731-40 (1995); Fredriksson, A. et al, Pharmacol-Toxicol. 67(4): 295-301 (1990)).
Retired breeder male mice were treated with either saline or 2×15 mg/kg MPTP to induce a Parkinsonian state (neurochemical loss of dopamine with corresponding behavioral deficits). On day one baseline stride length was measured and then mice were treated with either MPTP or with saline as a control. On day eight stride length was measured again, and the control value for stride length was derived from the stride length of saline-treated animals. The animals were then divided randomly into treatment groups. Compound OM955 (compound 3) was tested at 0.1 mg/kg, at 0.5 mg/kg, and at 0.1 mg/kg in combination with 1 mg/kg L-dopa.

[2] = system: MPTP-treated mice; experiment: inked paw stride length in the MPTP mouse model of Parkinson's disease, initial study (Example 5); format: in vivo; settings: for effect on stride length of saline-treated mice, in words: 20 minutes after dosing
Method: Adult male C57BL/6J; retired breeders, aged between 7-9 months (Jackson Laboratory, Bar Harbor, Me., USA), singly housed.
as §1
Seven days after MPTP or saline administration, OM69 was administered to mice. For each dose, a 100× stock of OM69 compound was prepared in 100% DMSO and subsequently diluted 100× into phosphate buffered saline (PBS). Then 100 μL of this 1× solution was administered via intraperitoneal (IP) injection.
as §2, with “calculated.” for “calculated. The schedule for this experiment was as follows:”
Retired breeder male mice (12-15 per group, ˜48-60 animals total) were treated with either saline or 2×15 mg/kg MPTP (12 saline; […]) to induce a Parkinsonian state (neurochemical loss of dopamine with corresponding behavioral deficits).
On day eight stride length was measured again, and the control value for stride length was derived from the stride length of saline-treated animals. Following this measurement the first treatments with L-dopa (5 mg/kg) or OM69 (0.1 mg/kg) were administered on day eight, as shown in FIG. 8. Stride length was then measured for each animal 20 minutes after dosing. […] Dosing with the treatments shown in FIG. 8 was carried out on successive days, with stride length measured 20 minutes after each dosing. As mentioned above, it was previously determined from pharmacokinetic studies that OM69 is washed out of the mice within 12 hours after dosing, so the stride length test carried out 20 minutes after dosing was believed to be measuring the effect of only the compounds administered on the day of treatment.
On day nine Group 1 animals were treated with L-dopa (1 mg/kg), and Group 2 animals were treated with OM69 (0.01 mg/kg). On day ten the treatment groups were crossed over, and Group 1 animals were treated with OM69 (0.01 mg/kg), and Group 2 animals were treated with L-dopa (1 mg/kg).
As further shown in FIG. 8, for the combination studies, all the mice in Group 1 and Group 2 were combined. On day 11 following MPTP administration, all the animals in Group 1 and Group 2 (n=9) were treated with the combination of L-dopa (1 mg/kg) and OM69 (0.01 mg/kg), with the stride length test carried out 20 minutes after dosing. On day 12 following MPTP administration, all the animals in Group 1 and Group 2 (n=9) were treated with the combination of L-dopa (1 mg/kg) and OM69 (0.03 mg/kg) with the stride length test carried out 20 minutes after dosing. In these combination studies carried out on day 11 and day 12, the average stride length data from two of the nine animals was not scorable because these two animals either ran rather than walking at a normal speed, or they kept starting and stopping rather than walking continuously. Therefore, these two animals were excluded, and only the remaining seven animals (n=7) were scored for the combination studies.
To assess and compare the effects of OM69 and L-dopa at these doses, data from mice with equivalent dosing was pooled. Thus, the average stride length for animals treated with L-dopa (1 mg/kg) was determined using measurements obtained from all nine animals. […]

[3] = target: PDE8A (Homo sapiens (Human), UniProt O60658); experiment: PDE selectivity SPA assay, PDE8A; format: biochemical; settings: IC50 against PDE8A divided by IC50 against PDE7A
Chain of PDE8A (O60658 whole entry): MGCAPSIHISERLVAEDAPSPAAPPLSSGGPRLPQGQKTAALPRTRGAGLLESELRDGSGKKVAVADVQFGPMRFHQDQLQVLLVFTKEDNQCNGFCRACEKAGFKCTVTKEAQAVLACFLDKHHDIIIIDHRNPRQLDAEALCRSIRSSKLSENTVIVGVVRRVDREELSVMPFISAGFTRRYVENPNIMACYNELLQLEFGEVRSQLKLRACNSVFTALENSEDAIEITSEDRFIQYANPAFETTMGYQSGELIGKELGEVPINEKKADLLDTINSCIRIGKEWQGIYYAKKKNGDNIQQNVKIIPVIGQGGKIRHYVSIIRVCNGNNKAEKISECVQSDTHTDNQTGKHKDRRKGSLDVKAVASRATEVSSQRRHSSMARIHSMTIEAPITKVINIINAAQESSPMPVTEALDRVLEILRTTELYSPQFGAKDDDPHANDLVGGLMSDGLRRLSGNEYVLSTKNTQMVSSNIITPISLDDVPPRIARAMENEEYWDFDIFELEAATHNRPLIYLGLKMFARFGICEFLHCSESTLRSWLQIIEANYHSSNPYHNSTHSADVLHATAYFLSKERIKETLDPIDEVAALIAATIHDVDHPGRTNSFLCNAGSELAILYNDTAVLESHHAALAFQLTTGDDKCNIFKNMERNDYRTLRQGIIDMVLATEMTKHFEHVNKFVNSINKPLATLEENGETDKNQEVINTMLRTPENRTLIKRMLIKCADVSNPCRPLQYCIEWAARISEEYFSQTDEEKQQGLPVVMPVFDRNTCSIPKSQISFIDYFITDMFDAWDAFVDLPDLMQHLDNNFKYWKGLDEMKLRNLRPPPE

SMILES	effect on stride length, in words ([1]; L-dopa 1 mg/kg alone, 20 minutes after administration)	effect on stride length, in words ([2]; MPTP-treated mice, L-dopa 1 mg/kg)	effect on stride length, in words ([2]; MPTP-treated mice, L-dopa 5 mg/kg)	dose dependence of the effect on stride length, in words ([2]; MPTP-treated mice, L-dopa 1 and 5 mg/kg)	effect on stride length of saline-treated mice, in words ([2]; L-dopa 5 mg/kg)	effect on stride length, in words ([1]; OM955 0.1 mg/kg alone, 20 minutes after administration)	effect on stride length, in words ([1]; OM955 0.5 mg/kg, 20 minutes (and one hour) after injection)	Fold Selectivity for PDE7A versus PDE8A [3]	effect on stride length, in words ([2]; MPTP-treated mice, OM69 0.01 mg/kg)	effect on stride length, in words ([2]; MPTP-treated mice, OM69 0.1 mg/kg IP)	L-dopa dose with the same effect on stride length, relative to the OM69 dose ([2]; OM69 0.1 mg/kg IP versus L-dopa 5 mg/kg)	effect on stride length of saline-treated mice, in words ([2]; OM69 0.1 mg/kg)
N[C@@H](Cc1ccc(O)c(O)c1)C(=O)O [L-dopa, levodopa, reference compound]	do not increase stride length when administered alone; also recorded: does not increase stride length in MPTP mice to a significant level	only a small effect	fully restore the stride length to that seen without MPTP treatment	increases their stride length in a dose-dependent manner	Neither L-dopa (5 mg/kg) nor OM69 (0.1 mg/kg) altered the stride length of saline-treated mice	–	–	–	–	–	–	–
O=C1Nc2c(Cl)ccc(OCCO)c2C2(CCCCC2)N1 [OM955]	–	–	–	–	–	do not increase stride length when administered alone; also recorded: does not increase stride length in MPTP mice to a significant level	statistically significant improvement in the stride length; also recorded: fully restored to that of unlesioned animals; also recorded: full recovery of baseline stride length	>192 fold	–	–	–	–
COc1cc(N)ccc1-c1cc2c(c(=O)[nH]1)C(C1CCCCC1)N=[N+]2C (stereo not shown) [OM69]	–	–	–	–	–	–	–	>7700 fold	only a small effect	fully restore the stride length to that seen without MPTP treatment	50 fold	Neither L-dopa (5 mg/kg) nor OM69 (0.1 mg/kg) altered the stride length of saline-treated mice
